The values below are quoted from earlier work in patent publication US20150119345A1, “BILE ACID RECYCLING INHIBITORS FOR TREATMENT OF GASTROINTESTINAL INFECTIONS” (priority 2013, published 2015).

One series deals with mice. To be noted: 0.1 mg/kg rat or human GLP-2 to mice for 7-10 days.

In the case of “GLP-2: 33 amino acid peptide, co-secreted along with GLP-1 from intestinal endocrine cells in the small and large intestine”, the t½ in vivo entry is “short”. Also, the “small bowel weight and villus height” value in the series on mice is “increase in small bowel weight and villus height”.
